The test system of assay [1] is GTPase KRas (Homo sapiens), P01116 [G12D]. The conditions noted are these: dose 10.0 µM.
Another assay relates to MIA PaCa-2. Nature of the assay: cells. The note with it: Homo sapiens, MIA PaCa-2, 168 h.
The target of assay [2] is T1, Son of sevenless homolog 1 (Homo sapiens, UniProt Q07889).
T1 sequence (Q07889 whole entry): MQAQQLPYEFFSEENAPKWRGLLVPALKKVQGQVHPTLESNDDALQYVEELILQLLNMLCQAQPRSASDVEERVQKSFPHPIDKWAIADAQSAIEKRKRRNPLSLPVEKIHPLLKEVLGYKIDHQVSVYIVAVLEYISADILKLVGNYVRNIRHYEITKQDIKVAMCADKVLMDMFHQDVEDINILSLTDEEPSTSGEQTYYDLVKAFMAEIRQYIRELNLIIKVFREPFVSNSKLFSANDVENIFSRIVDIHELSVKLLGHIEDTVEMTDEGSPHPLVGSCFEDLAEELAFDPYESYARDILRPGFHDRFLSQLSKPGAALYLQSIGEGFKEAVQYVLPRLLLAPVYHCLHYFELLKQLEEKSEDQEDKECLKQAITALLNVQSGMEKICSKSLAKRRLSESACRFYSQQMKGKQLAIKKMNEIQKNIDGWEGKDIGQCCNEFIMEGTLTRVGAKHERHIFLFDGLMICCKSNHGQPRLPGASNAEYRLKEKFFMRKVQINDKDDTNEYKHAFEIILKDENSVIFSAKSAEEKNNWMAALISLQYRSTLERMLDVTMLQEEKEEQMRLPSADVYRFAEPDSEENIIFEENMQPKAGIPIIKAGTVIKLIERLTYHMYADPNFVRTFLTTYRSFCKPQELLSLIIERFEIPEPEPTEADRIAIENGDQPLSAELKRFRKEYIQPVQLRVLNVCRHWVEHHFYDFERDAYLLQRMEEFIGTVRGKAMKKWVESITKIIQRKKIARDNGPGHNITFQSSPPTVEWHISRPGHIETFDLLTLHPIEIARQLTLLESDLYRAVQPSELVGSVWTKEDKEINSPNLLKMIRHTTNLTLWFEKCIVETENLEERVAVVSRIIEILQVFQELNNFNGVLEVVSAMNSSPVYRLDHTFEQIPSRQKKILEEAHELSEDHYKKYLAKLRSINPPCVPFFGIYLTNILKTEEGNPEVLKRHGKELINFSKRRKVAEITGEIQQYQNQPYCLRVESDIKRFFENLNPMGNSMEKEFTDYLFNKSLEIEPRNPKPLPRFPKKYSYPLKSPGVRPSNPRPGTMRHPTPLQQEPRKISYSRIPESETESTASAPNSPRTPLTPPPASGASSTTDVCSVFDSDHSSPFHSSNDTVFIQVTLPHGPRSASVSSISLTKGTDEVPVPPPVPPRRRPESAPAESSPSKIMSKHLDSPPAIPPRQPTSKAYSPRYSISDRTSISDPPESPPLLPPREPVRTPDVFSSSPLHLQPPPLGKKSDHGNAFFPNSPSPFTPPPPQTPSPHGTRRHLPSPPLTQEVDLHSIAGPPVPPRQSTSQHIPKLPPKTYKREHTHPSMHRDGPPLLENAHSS
The experiment in a line: Inhibition of 6His-tagged SOS1 (unknown origin) mediated GST-tagged KRAS G12D activation preincubated for 15 mins followed by KRAS G12D addition and measured after 30 mins by HTRF assay. On the technique in general: Time-resolved FRET reads energy transfer from a long-lived donor to a nearby acceptor.

Assay [3] has as its target Fibroblast growth factor receptor 1 (Homo sapiens, UniProt P11362). Nature of the assay: Inhibition of FGFR1 (unknown origin).
Assay [4] deals with Epidermal growth factor receptor (Homo sapiens, UniProt P00533). Nature of the assay: Inhibition of EGFR (unknown origin).
Chain of Epidermal growth factor receptor (P00533 whole entry): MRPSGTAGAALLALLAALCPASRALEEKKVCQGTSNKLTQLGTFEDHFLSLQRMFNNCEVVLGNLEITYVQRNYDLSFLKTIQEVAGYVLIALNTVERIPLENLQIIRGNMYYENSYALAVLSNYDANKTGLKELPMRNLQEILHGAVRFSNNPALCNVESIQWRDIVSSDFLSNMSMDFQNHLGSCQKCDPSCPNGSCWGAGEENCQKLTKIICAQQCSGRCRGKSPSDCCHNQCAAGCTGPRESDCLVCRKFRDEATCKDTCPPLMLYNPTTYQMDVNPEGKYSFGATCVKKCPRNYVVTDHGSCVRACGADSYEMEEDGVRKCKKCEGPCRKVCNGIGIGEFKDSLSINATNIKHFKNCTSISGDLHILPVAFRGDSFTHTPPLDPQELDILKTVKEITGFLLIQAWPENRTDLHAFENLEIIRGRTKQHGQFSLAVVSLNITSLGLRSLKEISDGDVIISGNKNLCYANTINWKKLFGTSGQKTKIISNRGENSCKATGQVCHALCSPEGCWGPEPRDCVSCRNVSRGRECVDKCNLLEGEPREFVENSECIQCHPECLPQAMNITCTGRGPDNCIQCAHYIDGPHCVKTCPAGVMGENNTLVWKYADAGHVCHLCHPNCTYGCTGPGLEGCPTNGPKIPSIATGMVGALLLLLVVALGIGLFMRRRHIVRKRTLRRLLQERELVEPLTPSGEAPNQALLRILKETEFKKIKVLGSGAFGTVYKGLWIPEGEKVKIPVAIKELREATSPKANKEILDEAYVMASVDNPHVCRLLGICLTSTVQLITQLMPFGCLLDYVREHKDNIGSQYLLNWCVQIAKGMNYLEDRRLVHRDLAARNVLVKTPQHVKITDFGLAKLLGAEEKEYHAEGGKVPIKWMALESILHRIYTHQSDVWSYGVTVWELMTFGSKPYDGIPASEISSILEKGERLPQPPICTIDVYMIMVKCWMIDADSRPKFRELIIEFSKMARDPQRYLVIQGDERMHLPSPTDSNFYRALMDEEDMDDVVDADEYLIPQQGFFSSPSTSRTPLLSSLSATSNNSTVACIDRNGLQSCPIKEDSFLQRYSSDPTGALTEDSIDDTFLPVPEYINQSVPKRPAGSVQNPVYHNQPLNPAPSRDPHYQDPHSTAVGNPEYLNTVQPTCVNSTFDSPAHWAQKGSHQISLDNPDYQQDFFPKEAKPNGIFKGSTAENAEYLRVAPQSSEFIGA
For assay [5], the target named is Receptor tyrosine-protein kinase erbB-2 (Homo sapiens, UniProt P04626). The experiment in a line: Inhibition of HER2 (unknown origin).
Chain of Receptor tyrosine-protein kinase erbB-2 (P04626 whole entry): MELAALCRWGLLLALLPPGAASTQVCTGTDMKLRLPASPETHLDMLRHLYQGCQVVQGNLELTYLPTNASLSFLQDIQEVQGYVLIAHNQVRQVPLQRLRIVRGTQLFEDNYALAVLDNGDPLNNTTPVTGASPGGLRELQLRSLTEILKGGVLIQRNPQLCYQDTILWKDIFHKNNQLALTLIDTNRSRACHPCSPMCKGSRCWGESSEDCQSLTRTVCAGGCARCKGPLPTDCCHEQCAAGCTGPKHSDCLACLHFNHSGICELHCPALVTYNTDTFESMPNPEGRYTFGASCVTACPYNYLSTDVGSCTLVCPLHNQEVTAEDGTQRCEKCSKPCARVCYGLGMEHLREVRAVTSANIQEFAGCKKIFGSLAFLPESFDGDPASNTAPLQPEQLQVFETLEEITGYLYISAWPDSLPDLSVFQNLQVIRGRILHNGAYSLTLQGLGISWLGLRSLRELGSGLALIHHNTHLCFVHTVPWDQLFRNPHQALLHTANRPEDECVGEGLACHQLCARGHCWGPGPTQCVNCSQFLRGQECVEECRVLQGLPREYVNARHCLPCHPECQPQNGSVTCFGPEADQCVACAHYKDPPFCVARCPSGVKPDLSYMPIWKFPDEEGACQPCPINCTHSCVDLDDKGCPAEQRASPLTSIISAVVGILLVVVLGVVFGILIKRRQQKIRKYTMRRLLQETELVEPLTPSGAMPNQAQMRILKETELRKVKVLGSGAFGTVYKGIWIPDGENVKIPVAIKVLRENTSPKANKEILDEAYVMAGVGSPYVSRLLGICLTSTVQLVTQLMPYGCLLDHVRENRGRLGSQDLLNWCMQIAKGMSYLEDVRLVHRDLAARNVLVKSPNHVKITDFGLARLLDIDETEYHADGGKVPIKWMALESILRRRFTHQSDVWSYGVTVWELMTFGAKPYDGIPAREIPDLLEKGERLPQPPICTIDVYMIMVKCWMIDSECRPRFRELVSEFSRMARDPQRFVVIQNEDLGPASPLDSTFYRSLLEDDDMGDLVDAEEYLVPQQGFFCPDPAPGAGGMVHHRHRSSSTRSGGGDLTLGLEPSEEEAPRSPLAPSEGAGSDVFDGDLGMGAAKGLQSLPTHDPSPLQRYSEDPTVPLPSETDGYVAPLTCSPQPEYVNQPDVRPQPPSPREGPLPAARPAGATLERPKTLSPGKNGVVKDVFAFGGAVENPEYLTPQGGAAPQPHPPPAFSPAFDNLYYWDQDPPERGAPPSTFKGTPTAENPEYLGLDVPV
In assay [6] the target is Platelet-derived growth factor receptor alpha (Homo sapiens, UniProt P16234). The experiment in a line: Inhibition of PDGFRalpha (unknown origin).
Chain of Platelet-derived growth factor receptor alpha (P16234 whole entry): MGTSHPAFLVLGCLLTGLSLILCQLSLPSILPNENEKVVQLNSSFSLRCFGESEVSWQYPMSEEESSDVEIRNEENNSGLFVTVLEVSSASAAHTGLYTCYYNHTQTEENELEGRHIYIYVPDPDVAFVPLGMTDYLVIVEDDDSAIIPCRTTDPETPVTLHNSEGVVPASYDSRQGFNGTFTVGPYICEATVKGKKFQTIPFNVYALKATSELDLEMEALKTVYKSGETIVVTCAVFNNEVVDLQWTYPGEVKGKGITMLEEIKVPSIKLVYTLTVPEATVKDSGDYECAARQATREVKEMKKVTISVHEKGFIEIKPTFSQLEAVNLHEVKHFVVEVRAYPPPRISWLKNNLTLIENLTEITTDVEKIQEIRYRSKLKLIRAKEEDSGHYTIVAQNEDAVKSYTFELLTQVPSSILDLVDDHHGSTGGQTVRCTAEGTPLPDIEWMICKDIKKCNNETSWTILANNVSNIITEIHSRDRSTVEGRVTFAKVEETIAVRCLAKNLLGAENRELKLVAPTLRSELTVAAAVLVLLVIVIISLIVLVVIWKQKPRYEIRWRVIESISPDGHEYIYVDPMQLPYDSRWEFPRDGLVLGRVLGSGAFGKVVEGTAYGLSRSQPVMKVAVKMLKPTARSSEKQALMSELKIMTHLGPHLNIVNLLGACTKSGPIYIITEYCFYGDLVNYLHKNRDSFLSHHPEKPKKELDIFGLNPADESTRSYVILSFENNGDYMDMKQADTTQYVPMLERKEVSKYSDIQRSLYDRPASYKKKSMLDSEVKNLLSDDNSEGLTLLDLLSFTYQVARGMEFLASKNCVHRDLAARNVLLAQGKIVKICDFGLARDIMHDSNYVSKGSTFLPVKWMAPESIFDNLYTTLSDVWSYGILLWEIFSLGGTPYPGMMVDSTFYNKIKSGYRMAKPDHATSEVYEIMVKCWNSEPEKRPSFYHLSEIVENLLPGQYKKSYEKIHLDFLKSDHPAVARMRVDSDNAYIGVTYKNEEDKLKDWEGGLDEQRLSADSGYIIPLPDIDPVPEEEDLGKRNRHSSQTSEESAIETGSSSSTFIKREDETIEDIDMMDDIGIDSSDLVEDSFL
Assay [7] has as its target Cyclin-dependent kinase 2 (Homo sapiens, UniProt P24941). Nature of the assay: Inhibition of CDK2 (unknown origin).
Assay [8] deals with Cyclin-dependent kinase 4 (Homo sapiens, UniProt P11802). The experiment in a line: Inhibition of CDK4 (unknown origin).
Chain of Cyclin-dependent kinase 4 (P11802 whole entry): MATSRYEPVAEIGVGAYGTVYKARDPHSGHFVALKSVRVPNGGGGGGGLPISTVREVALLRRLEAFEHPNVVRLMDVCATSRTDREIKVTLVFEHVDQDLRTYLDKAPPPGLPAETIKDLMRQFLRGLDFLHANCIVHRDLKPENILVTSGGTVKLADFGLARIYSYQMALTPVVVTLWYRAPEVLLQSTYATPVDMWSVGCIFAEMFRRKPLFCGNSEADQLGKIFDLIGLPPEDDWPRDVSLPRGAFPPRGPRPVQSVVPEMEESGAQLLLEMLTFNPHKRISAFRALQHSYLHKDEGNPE

Chain of GTPase KRas (Homo sapiens), P01116 [G12D] (P01116 whole entry G12D, looked up): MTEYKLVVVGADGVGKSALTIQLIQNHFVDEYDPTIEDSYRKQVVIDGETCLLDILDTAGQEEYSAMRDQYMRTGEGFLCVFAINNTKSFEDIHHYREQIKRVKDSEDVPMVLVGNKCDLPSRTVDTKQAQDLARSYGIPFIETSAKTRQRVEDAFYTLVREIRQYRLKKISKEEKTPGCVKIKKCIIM
Chain of Fibroblast growth factor receptor 1 (P11362 whole entry): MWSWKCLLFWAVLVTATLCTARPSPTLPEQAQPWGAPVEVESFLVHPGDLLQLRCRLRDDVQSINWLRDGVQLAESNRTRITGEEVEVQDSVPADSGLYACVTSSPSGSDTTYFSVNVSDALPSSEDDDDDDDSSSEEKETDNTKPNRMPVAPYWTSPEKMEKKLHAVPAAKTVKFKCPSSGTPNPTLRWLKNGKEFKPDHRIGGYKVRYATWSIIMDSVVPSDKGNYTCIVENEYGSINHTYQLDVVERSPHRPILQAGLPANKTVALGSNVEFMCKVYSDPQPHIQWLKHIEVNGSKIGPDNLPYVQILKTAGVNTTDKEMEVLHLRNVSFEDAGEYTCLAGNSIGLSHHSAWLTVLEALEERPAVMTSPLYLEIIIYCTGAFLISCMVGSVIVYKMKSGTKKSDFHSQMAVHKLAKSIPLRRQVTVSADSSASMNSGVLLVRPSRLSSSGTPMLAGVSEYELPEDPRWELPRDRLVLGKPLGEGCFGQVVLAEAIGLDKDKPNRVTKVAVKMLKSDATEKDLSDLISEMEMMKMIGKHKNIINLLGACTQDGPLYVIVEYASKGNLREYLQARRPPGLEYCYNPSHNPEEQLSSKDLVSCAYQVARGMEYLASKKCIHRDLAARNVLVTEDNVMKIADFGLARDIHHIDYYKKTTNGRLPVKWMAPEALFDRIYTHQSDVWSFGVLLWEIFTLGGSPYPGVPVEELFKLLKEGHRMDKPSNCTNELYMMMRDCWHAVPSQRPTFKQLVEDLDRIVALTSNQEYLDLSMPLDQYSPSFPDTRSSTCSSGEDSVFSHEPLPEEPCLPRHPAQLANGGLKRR

What is called ΔTm is the change in melting temperature against a reference sample. One may read the IC50 as the point on the concentration scale where inhibition reaches its midpoint. Read a low IC50 as higher potency. For `COc1cc2nc(C)nc(N[C@H](C)c3cc(N)cc(C(F)(F)F)c3)c2cc1O[C@H]1CCOC1`, the ΔTm in [1] stood at 0 °C. In the assay on MIA PaCa-2, this compound gave an IC50 of 0.03 µM.

As for `C[C@@H](Nc1ncnc2c1cc(N)c(=O)n2C)c1cc(N)cc(C(F)(F)F)c1`, the IC50 in assay [2] was above 5 µM.

For the compound `CC(=O)N1CCC(c2cc3c(N[C@H](C)c4cc(N)cc(C(F)(F)F)c4)nc(C)nc3n(C)c2=O)CC1`, the IC50 in assay [3], in assay [4], in [5], in assay [6], in [7] and in assay [8] was above 10 µM each time.

Compound `C[C@@H](Nc1ncnc2c1cc(NC1CCCCC1)c(=O)n2C)c1cc(N)cc(C(F)(F)F)c1` registered an IC50 in assay [2] above 5 µM.

In turn, `CC(=O)N1CCC(c2cc3c(Nc4cccc(C(F)(F)F)c4)ncnc3n(C)c2=O)CC1` returned an IC50 in [2] above 5 µM.

In the case of `C[C@@H](Nc1ncnc2c1ccc(=O)n2C)c1cc(N)cc(C(F)(F)F)c1`, the IC50 in [2] was above 5 µM.

`CC(=O)Nc1cc2c(N[C@H](C)c3cc(N)cc(C(F)(F)F)c3)ncnc2n(C)c1=O`: the IC50 in assay [2] is above 5 µM.

Values taken from ChEMBL document CHEMBL5223180, “Design, Synthesis, and Bioevaluation of Pyrido[2,3-d]pyrimidin-7-ones as Potent SOS1 Inhibitors” (ACS Med Chem Lett, 2023).
